Like-named read-outs stand apart in the source and are kept apart here.
Experiments:
[1] = Cytotoxicity MTS assay, HepG2; assay type: cell-based; details: 24 h exposure
Protocol: (§1) The human hepatocyte carcinoma HepG2 (ECACC 85011430), human embryo kidney HEK293 (ECACC 85120602) and human neuroblastoma SH-SY5Y (ECACC 94030304) cell lines were obtained from the certified cell-bank European Collection of Authenticated Cell Cultures (ECACC) through Sigma-Aldrich (Steinheim, Germany). HepG2 and HEK293 cells were grown in EMEM and SH-SY5Y in DMEM-F12, as described previously, and cell cultivation and maintenance were conducted according to standard protocol. All media and supplements were purchased from Sigma-Aldrich, Steinheim, Germany.
(§2) The cytotoxic profiles of tested compounds were determined by measuring the succinate dehydrogenase mitochondrial activity of exposed cells. The commercially available MTS detection reagent assay (CellTiter 96® AQueous One Solution Cell Proliferation Assay, Promega, Madison, WI, USA) was used. The procedure followed a previously described protocol. Cells were exposed to compounds in a concentration range of 0.01–1000 µM for 24 h. DMSO (20%) was used as positive control to validate the method. After desired time of incubation at 37 °C in a 5% CO2 atmosphere, cells were washed with PBS buffer and 100 µL of EMEM or DMEM medium and 20 µL of MTS were added in each well, incubated up to 1 h after which the absorbance was read at 492 nm on an Infinite M200PRO plate reader (Tecan Austria GmbH, Salzburg, Austria). Data are presented as percentages of the inhibited cells to control untreated cells, i.e., the percentage of cytotoxicity.

[2] = Cytotoxicity MTS assay, HEK293; assay type: cell-based; details: 24 h exposure
Protocol: as §1, §2

recombinant human AChE = molecular target: T1, recombinant human AChE (Homo sapiens, UniProt P22303); test: Inhibition of human AChE (Ellman method, Hunter–Downs Ki); assay type: biochemical; details: for Ki: human AChE, Ki ± SE, at least three experiments, ATCh substrate; for SI = Ki(BChE)/Ki(AChE): selectivity index, AChE over BChE
T1 construct: gift of Dr Florian Nachon, Armed Forces Biomedical Research Institute, Brétigny-sur-Orge, France
Protocol: (§3) Acetylthiocholine (ATCh) and 5,5’-dithiobis(2-nitrobenzoic acid) (DTNB) were purchased from Sigma Chemical Co., St. Louis, MO, USA. ATCh was dissolved in water and DTNB in 0.1 M sodium phosphate buffer (pH 7.4). […] Purified human BChE and recombinant human AChE were kindly provided by Dr Florian Nachon (Département de Toxicologie, Armed Forces Biomedical Research Institute, Brétigny-sur-Orge, France). The enzymes were diluted in a phosphate sodium buffer 0.1 M (pH 7.4) containing 0.01% BSA.
(§4) Cholinesterase activity measurements, evaluation of Ki (dissociation constants of enzyme−inhibitor complex) and Ks constants (dissociation constants of enzyme−substrate complex) were performed following procedures described previously. Briefly, enzyme activity was measured spectrophotometrically using a slightly modified Ellman method. […] At least three concentrations of inhibitors for each substrate concentration were used in at least three experiments.
(§5) The y-intercept determines the enzyme–inhibitor dissociation constants (Ki), while the x-intercept determines the enzyme–substrate dissociation constant, KS [57].

[3] = Cytotoxicity MTS assay, SH-SY5Y; assay type: cell-based; details: 24 h exposure
Protocol: HepG2 and HEK293 cells were grown in EMEM and SH-SY5Y in DMEM-F12, as described previously, and cell cultivation and maintenance were conducted according to standard protocol. All media and supplements were purchased from Sigma-Aldrich, Steinheim, Germany.
as §2

purified human BChE = molecular target: T2, purified human BChE (Homo sapiens, UniProt P06276); test: biochemical; assay type: biochemical; details: for Ki: human BChE, Ki ± SE, at least three experiments, ATCh substrate
T2 construct: gift of Dr Florian Nachon, Armed Forces Biomedical Research Institute, Brétigny-sur-Orge, France
Protocol: as §3, §4, §5

[4] = FRAP assay (ferric reducing antioxidant power); details: 10 µM compound
Protocol: The in vitro antioxidant activity of tested compounds was evaluated using the FRAP assay following a procedure described earlier. […] Trolox and butylated hydroxytoluene (BHT) were used as standard antioxidants. The absorbance was recorded at 593 nm using a microplate reader (SpectraMax iD3, Molecular Devices, San Jose, CA, USA) against a blank. All measurements were taken in three independent triplicates in at least three independent experiments. FRAP values, denominating the reduction of ferric-tripyridyltriazine (Fe^3+-TPTZ) to ferrous tripyridyltriazine (Fe^2+-TPTZ) by the tested compounds, were calculated on the basis of a standard curve obtained using […].

[5] = Cytotoxicity MTS assay, over all three cell lines; assay type: cell-based, human; details: human, HEK293 and SH-SY5Y cells; HepG2, HEK293, SH-SY5Y; 24 h exposure
Protocol: as §1, §2

[6] = tested on: HepG2, HEK293 and SH-SY5Y; test: Cytotoxicity MTS assay, over all three cell lines; assay type: cell-based, human; details: 24 h exposure
Protocol: as §1, §2

[7] = human, SH-SY5Y cells, IC50 ± SE

T1 sequence (P22303 32-614): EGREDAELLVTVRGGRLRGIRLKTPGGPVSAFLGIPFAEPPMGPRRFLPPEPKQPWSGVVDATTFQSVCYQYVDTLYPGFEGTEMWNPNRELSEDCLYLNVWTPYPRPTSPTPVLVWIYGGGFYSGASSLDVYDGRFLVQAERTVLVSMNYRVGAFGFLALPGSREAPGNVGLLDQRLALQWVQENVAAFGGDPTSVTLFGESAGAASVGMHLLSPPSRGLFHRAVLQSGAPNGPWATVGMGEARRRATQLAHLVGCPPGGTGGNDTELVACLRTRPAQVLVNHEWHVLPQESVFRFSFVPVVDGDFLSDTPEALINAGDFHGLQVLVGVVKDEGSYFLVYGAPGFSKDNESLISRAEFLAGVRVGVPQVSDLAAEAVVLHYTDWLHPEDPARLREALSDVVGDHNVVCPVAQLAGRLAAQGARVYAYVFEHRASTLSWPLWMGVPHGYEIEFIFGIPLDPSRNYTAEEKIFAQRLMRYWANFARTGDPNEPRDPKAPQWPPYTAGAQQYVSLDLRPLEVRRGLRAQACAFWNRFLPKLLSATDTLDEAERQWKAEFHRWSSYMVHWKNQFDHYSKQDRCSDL
T2 sequence (P06276 29-602): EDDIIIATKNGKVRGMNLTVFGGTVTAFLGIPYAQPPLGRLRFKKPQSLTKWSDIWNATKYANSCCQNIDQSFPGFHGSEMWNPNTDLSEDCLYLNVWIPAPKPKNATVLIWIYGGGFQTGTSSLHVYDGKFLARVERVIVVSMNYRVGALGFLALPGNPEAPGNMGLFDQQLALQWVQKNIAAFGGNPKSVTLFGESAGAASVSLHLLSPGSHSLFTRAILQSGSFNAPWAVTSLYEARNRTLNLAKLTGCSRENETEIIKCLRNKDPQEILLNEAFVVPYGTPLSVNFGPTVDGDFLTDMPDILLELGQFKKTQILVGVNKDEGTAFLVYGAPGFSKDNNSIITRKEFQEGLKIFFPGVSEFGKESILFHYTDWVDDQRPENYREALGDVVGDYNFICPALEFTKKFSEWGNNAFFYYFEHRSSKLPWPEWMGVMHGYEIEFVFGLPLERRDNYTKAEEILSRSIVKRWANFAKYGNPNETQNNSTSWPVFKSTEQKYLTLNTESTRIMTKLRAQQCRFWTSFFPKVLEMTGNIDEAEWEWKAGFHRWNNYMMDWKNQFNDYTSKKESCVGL

Compound	IC50 at 24 h ([1]; in mM) [mM]	IC50 at 24 h ([2]; in mM) [mM]	Ki (recombinant human AChE) [nM]	IC50 at 24 h ([3]; IC50 ± SE) [mM]	Ki (purified human BChE; Ki BChE) [µM]	IC50 at 24 h ([1]; human, HepG2 cells, in mM) [mM]	FRAP value relative to the FRAP value for BHT [4]	IC50 at 24 h ([2]; human, HEK293 cells, IC50 ± SE) [mM]	SI = Ki(BChE)/Ki(AChE) (recombinant human AChE)	IC50 at 24 h [3, 7] [mM]	IC50 at 24 h [5] [µM]	Ki (purified human BChE; read-out: Ki BChE) [µM]	IC50 at 24 h ([2]; human, HEK293 cells, in mM) [mM]	IC50 at 24 h ([3]; human, SH-SY5Y cells, in mM) [mM]	Toxicity to any tested cell type [6]	IC50 at 24 h ([1]; human, HepG2 cells, IC50 ± SE) [mM]	FRAP value / reducing power compared with Trolox and BHT [4]	AChE inhibition potency, times lower compared to 2 (recombinant human AChE; fold, compared to compound 2)	Selectivity to BChE (purified human BChE; BChE over AChE)
CCN(CC)Cc1cc(Nc2ccnc3cc(Cl)ccc23)ccc1O [AMQ, Amodiaquine, reference compound]	≥ 1	≥ 1	46 ± 1	0.134 ± 0.036	9.1 ± 0.7														
CCN(CC)Cc1cc(Nc2ccnc3ccccc23)ccc1O [Compound 6]			230 ± 10			≥ 1	higher than 50%	0.35 ± 0.04	26	0.453 ± 0.012	≥ 100	5.9 ± 0.8							
CCN(CC)Cc1cc(Nc2ccnc3cc(C(F)(F)F)ccc23)ccc1O [Compound 2]			75 ± 3			≥ 1			97			7.3 ± 0.8	≥ 1	≥ 1	not toxic to any tested cell type				
CCN(CC)Cc1cc(Nc2ccnc3cc(OC)ccc23)ccc1O [Compound 5]			25 ± 1				higher than 50%	0.037 ± 0.011	300	0.036 ± 0.005		7.6 ± 0.4				0.1 ± 0.01	not more than 50% lower than those of either Trolox or BHT		
CCN(CC)Cc1cc(Nc2ccnc3cc([N+](=O)[O-])ccc23)ccc1O [Compound 4]			84 ± 3					0.033 ± 0.003		0.026 ± 0.004		14 ± 1				0.039 ± 0.006			
CCN(CC)Cc1cc(Nc2ccnc3ccc(F)cc23)ccc1O [Compound 7]			51 ± 2					0.159 ± 0.041		0.181 ± 0.041	≥ 100	11 ± 1				0.529 ± 0.029	not more than 50% lower than those of either Trolox or BHT		
CCN(CCO)Cc1cc(Nc2ccnc3cc(Cl)ccc23)ccc1O [Compound 14]			110			≥ 1	higher than 50%		62		≥ 100	6.8 ± 0.3	≥ 1	≥ 1	not toxic to any tested cell type		greater potency than both Trolox and BHT		
CCN(CC)Cc1cc(Nc2cc(C(F)(F)F)nc3ccccc23)ccc1O [Compound 11]			7600 ± 300					0.025 ± 0.004	0.22	0.035 ± 0.005		1.7 ± 0.1				0.232 ± 0.068	not more than 50% lower than those of either Trolox or BHT	100	about five times more selective to BChE
CCN(CC)Cc1cc(Nc2ccnc3cc(C#N)ccc23)ccc1O [Compound 3]			78 ± 4					0.103 ± 0.003		0.098 ± 0.003	≥ 100	19 ± 1				0.471 ± 0.019	not more than 50% lower than those of either Trolox or BHT		
CCN(CC)Cc1cc(Nc2ccnc3cccc(C(=O)O)c23)ccc1O [Compound 13]			1300 ± 100					0.103 ± 0.008	12	0.148 ± 0.017	≥ 100	16 ± 1				0.546 ± 0.046			
CCN(CC)Cc1cc(Nc2ccnc3cc(F)ccc23)ccc1O [Compound 1]			170 ± 10					0.09 ± 0.022	77	0.09 ± 0.01		13 ± 1				0.219 ± 0.028	not more than 50% lower than those of either Trolox or BHT		
CCN(CC)Cc1cc(Nc2ccnc3c(F)cccc23)ccc1O [Compound 8]			510 ± 30			≥ 1		0.134 ± 0.047	11	0.085 ± 0.005		5.4 ± 0.5							
CCN(CC)Cc1cc(Nc2ccnc3ccc(C#N)cc23)ccc1O [Compound 12]			190 ± 10					0.088 ± 0.031		0.092 ± 0.017		21 ± 1				0.276 ± 0.046			
CCN(CC)Cc1cc(Nc2ccnc3c(C(F)(F)F)cccc23)ccc1O [Compound 10]			1200 ± 100			≥ 1		0.087 ± 0.033	17	0.088 ± 0.008		20 ± 1							
CCN(CC)Cc1cc(Nc2ccnc3ccc(C(F)(F)F)cc23)ccc1O [Compound 9]			93 ± 3			≥ 1					≥ 100	14 ± 1	≥ 1	≥ 1	not toxic to any tested cell type				
